In PubChem BioAssay AID1963444 (Molecular Pharmacology Branch, DTP, NCI, 2024):

Tested on: HSSY-II complex spheroid growth, percent test/control
Assay: Anticancer human tumor HSSY-II cell line growth inhibition [Asc];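 note: spheroids exposed to drug for 7 days before reading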
Details: for IC50: curve of first compound; for viability, T/C: stronger effect = lower value; active = viability on the fitted dose curve at most 10% of control; inactive = the rest
Summary of the method: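 Tumor cells were grown as multicellular spheroids with stromal HUVEC and mesenchymal stem cells and treated singly or in combination. Concentrations fell in half-log steps from the clinical Cmax, or from 10 microM where none was known.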

[1] = second compound 0.1 µM, first compound 0.0316 µM
[2] = second compound 0.1 µM, first compound 0.1 µM
[3] = second compound 0.1 µM, first compound 0.316 µM
[4] = second compound 0.1 µM, first compound 1 µM
[5] = second compound 0.1 µM, first compound 3.16 µM
[6] = second compound 0.1 µM, first compound 10 µM
[7] = second compound 0.316 µM, first compound 0.0316 µM
[8] = second compound 0.316 µM, first compound 0.1 µM
[9] = second compound 0.316 µM, first compound 0.316 µM
[10] = second compound 0.316 µM, first compound 1 µM
[11] = second compound 0.316 µM, first compound 3.16 µM
[12] = second compound 0.316 µM, first compound 10 µM
[13] = second compound 1 µM, first compound 0.0316 µM
[14] = second compound 1 µM, first compound 0.1 µM
[15] = second compound 1 µM, first compound 0.316 µM
[16] = second compound 1 µM, first compound 1 µM
[17] = second compound 1 µM, first compound 3.16 µM
[18] = second compound 1 µM, first compound 10 µM

C=C(F)C(=O)N1CCN(c2nc(OCC3CCCN3C)nc3c2CCN(c2cccc4cccc(Cl)c24)C3)CC1CC#N (stereo not given) + CNC(C)C(=O)NC1CN(S(=O)(=O)c2cccc(S(=O)(=O)N3CCC4CCC(C(=O)NC(c5ccccc5)c5ccccc5)N4C(=O)C(NC(=O)C(C)NC)C3)c2)CCC2CCC(C(=O)NC(c3ccccc3)c3ccccc3)N2C1=O
active: viability, T/C (second compound 0.01 µM, first compound 3.16 µM) 0.97% | viability, T/C (second compound 0.01 µM, first compound 10 µM) 0.1% | viability, T/C (second compound 0.0316 µM, first compound 3.16 µM) 0.93% | viability, T/C (second compound 0.0316 µM, first compound 10 µM) 0.1% | viability, T/C [5] 0.66% | viability, T/C [6] 0.1% | viability, T/C [11] 0.45% | viability, T/C [12] 0.12% | viability, T/C [17] 0.37% | viability, T/C [18] 0.19%
inactive: viability, T/C (second compound 0.01 µM, first compound 0.0316 µM) 95.8% | viability, T/C (second compound 0.01 µM, first compound 0.1 µM) 91% | viability, T/C (second compound 0.01 µM, first compound 0.316 µM) 61.4% | viability, T/C (second compound 0.01 µM, first compound 1 µM) 45.9% | viability, T/C (second compound 0.0316 µM, first compound 0.0316 µM) 89.3% | viability, T/C (second compound 0.0316 µM, first compound 0.1 µM) 80.9% | viability, T/C (second compound 0.0316 µM, first compound 0.316 µM) 68.7% | viability, T/C (second compound 0.0316 µM, first compound 1 µM) 53.9% | viability, T/C [1] 90% | viability, T/C [2] 91.2% | viability, T/C [3] 79.3% | viability, T/C [4] 47.6% | viability, T/C [7] 88.5% | viability, T/C [8] 74.5% | viability, T/C [9] 74.4% | viability, T/C [10] 47.8% | viability, T/C [13] 79.6% | viability, T/C [14] 80.6% | viability, T/C [15] 65.1% | viability, T/C [16] 41.6%
1.03 µM: IC50 (second compound 0.0316 µM)
0.876 µM: IC50 (second compound 0.1 µM)
0.618 µM: IC50 (second compound 0.01 µM)
0.895 µM: IC50 (second compound 0.316 µM)
0.65 µM: IC50 (second compound 1 µM)

CCN1C(C(=O)NC23CCC(C(=O)O)(CC2)CC3)C(c2cccc(Cl)c2F)C2(C(=O)Nc3cc(Cl)ccc32)C12CCCCC2 (stereo not given) + CNC(C)C(=O)NC1CN(S(=O)(=O)c2cccc(S(=O)(=O)N3CCC4CCC(C(=O)NC(c5ccccc5)c5ccccc5)N4C(=O)C(NC(=O)C(C)NC)C3)c2)CCC2CCC(C(=O)NC(c3ccccc3)c3ccccc3)N2C1=O
0.0819 µM: IC50 (second compound 0.1 µM)
0.0882 µM: IC50 (second compound 0.01 µM)
active: viability, T/C (second compound 0.01 µM, first compound 0.949 µM) 2.75% | viability, T/C (second compound 0.01 µM, first compound 3 µM) 0.77% | viability, T/C (second compound 0.0316 µM, first compound 0.949 µM) 1.52% | viability, T/C (second compound 0.0316 µM, first compound 3 µM) 0.58% | viability, T/C (second compound 0.1 µM, first compound 0.949 µM) 1.69% | viability, T/C (second compound 0.1 µM, first compound 3 µM) 0.35% | viability, T/C (second compound 0.316 µM, first compound 0.3 µM) 11.2% | viability, T/C (second compound 0.316 µM, first compound 0.949 µM) 1% | viability, T/C (second compound 0.316 µM, first compound 3 µM) 0.23% | viability, T/C (second compound 1 µM, first compound 0.3 µM) 9.04% | viability, T/C (second compound 1 µM, first compound 0.949 µM) 1.32% | viability, T/C (second compound 1 µM, first compound 3 µM) 0.3%
0.0777 µM: IC50 (second compound 0.316 µM)
inactive: viability, T/C (second compound 0.01 µM, first compound 0.00949 µM) 96% | viability, T/C (second compound 0.01 µM, first compound 0.03 µM) 82.6% | viability, T/C (second compound 0.01 µM, first compound 0.0949 µM) 47.9% | viability, T/C (second compound 0.01 µM, first compound 0.3 µM) 14.6% | viability, T/C (second compound 0.0316 µM, first compound 0.00949 µM) 84.7% | viability, T/C (second compound 0.0316 µM, first compound 0.03 µM) 65.1% | viability, T/C (second compound 0.0316 µM, first compound 0.0949 µM) 55.9% | viability, T/C (second compound 0.0316 µM, first compound 0.3 µM) 14.8% | viability, T/C (second compound 0.1 µM, first compound 0.00949 µM) 90% | viability, T/C (second compound 0.1 µM, first compound 0.03 µM) 81.2% | viability, T/C (second compound 0.1 µM, first compound 0.0949 µM) 44.6% | viability, T/C (second compound 0.1 µM, first compound 0.3 µM) 13.4% | viability, T/C (second compound 0.316 µM, first compound 0.00949 µM) 95.7% | viability, T/C (second compound 0.316 µM, first compound 0.03 µM) 85.1% | viability, T/C (second compound 0.316 µM, first compound 0.0949 µM) 41.8% | viability, T/C (second compound 1 µM, first compound 0.00949 µM) 82.9% | viability, T/C (second compound 1 µM, first compound 0.03 µM) 74.4% | viability, T/C (second compound 1 µM, first compound 0.0949 µM) 39.8%
0.099 µM: IC50 (second compound 0.0316 µM)
0.0677 µM: IC50 (second compound 1 µM)

O=C(c1cc(Cc2n[nH]c(=O)c3ccccc23)ccc1F)N1CCN(C(=O)C2CC2)CC1 + Cc1c(S(C)(=O)=O)c(-c2cc(F)cc(N3CCN(c4ccc(NS(=O)(=O)c5ccc(NC(CCN6CCC(C(=O)OCCCP(=O)(O)O)CC6)CSc6ccccc6)c(S(=O)(=O)C(F)(F)F)c5)cc4)CC3)c2)c(-c2ccc(Cl)cc2)n1C(C)C
2.44 µM: IC50 (second compound 0.1 µM)
1.5 µM: IC50 (second compound 1 µM)
1.46 µM: IC50 (second compound 10 µM)
1.96 µM: IC50 (second compound 0.316 µM)
active: viability, T/C [6] 8.94% | viability, T/C [12] 6.49% | viability, T/C [18] 5.63% | viability, T/C (second compound 3.16 µM, first compound 10 µM) 3.28% | viability, T/C (second compound 10 µM, first compound 10 µM) 2.61%
inactive: viability, T/C [1] 103% | viability, T/C [2] 98.9% | viability, T/C [3] 93% | viability, T/C [4] 77.8% | viability, T/C [5] 41.7% | viability, T/C [7] 82.7% | viability, T/C [8] 88.3% | viability, T/C [9] 86.8% | viability, T/C [10] 78.1% | viability, T/C [11] 29.8% | viability, T/C [13] 81.8% | viability, T/C [14] 92.8% | viability, T/C [15] 76.2% | viability, T/C [16] 64.1% | viability, T/C [17] 26.4% | viability, T/C (second compound 3.16 µM, first compound 0.0316 µM) 93.2% | viability, T/C (second compound 3.16 µM, first compound 0.1 µM) 92% | viability, T/C (second compound 3.16 µM, first compound 0.316 µM) 82.5% | viability, T/C (second compound 3.16 µM, first compound 1 µM) 76% | viability, T/C (second compound 3.16 µM, first compound 3.16 µM) 26.5% | viability, T/C (second compound 10 µM, first compound 0.0316 µM) 83.5% | viability, T/C (second compound 10 µM, first compound 0.1 µM) 90.2% | viability, T/C (second compound 10 µM, first compound 0.316 µM) 78.8% | viability, T/C (second compound 10 µM, first compound 1 µM) 66.7% | viability, T/C (second compound 10 µM, first compound 3.16 µM) 16.9%
1.81 µM: IC50 (second compound 3.16 µM)
